# In patent publication US20080220416A1, “Compositions for Inhibiting Cell Growth and Inducing Apoptosis in Cancer Cells and Methods of Use Thereof” (THE BOARD OF TRUSTEES OF THE UNIVERSITY OF ILLINOI, priority 2004, published 2008):
# Square brackets hold non-standard residues; d marks the D form. Peptide text beside a SMILES is read from it. * marks the point of attachment. Nle = CCCC[C@H](N)C(=O)O; Cbz = O=C(OCc1ccccc1)*
# How the values were obtained:
# Assay type in all cases: cell-based
# [1] = tested on: CaSki human cervical cancer cells; experiment: Cell growth inhibition assay in CaSki cervical cancer cells (crystal violet)
# Procedure: The cell growth inhibition assay was performed in a 96-well plate format. Inhibition was assessed by monitoring the protein content in each well using the crystal violet staining method as described by Skehan et al., 1990, J Natl Cancer Inst 82:1107-1112 and Prochaska et al., 1988, Anal Biochem 169:328-336. Briefly, cells were plated at a density of 2×10^4 cells/ml in 200 μl of DMEM supplemented with 10% FBS. The cells were transfected with siRNAs ([…] siRNA oligos/well) using Oligofectamine Transfection Reagents (InVitrogen) according to manufacturer's instructions. Twenty-four hours post-transfection, the media was decanted, 190 μl of fresh media was added to each well, and 10 μl of cisplatin (4 mM) dissolved in 10% DMSO was added to the wells as a series 2-fold dilutions (final concentration of cisplatin in the wells ranged from 0.5-200 μM). The cells were incubated with cisplatin for 48 hrs, the media was decanted, and the cells were submerged with 200 μl of 0.2% crystal violet in 2% ethanol for 10 min. The plates were rinsed for 2 min with tap water. The bound dye was solublized by incubation at 37° C. for 1 h with 200 μl of 0.5% sodium dedecyl sulfate in 50% ethanol. The plates were then scanned with an ELISA reader at 562 nm. The percentage cell growth inhibition mediated by cisplatin was calculated as: % inhibition=[1-(OD of cisplatin-treated cells/OD DMSO-treated control cells)]×100/100.
# CaSki human cervical cancer cells treated for 48 hrs with z-Leu-Leu-Nle-CHO alone were tested for cell growth inhibition. The cell growth inhibition assay was performed in a 96-well plate format. Inhibition was assessed by monitoring the protein content in each well using the crystal violet staining method Skehan, P. et al., 1990, J Natl Cancer Inst 82:1107-1112. Briefly, cells were plated at a density of 2×10^4 cells/ml in 200 μl of DMEM supplemented with 10% FBS. After pre-incubation period of 24 h, the media was decanted, 190 μl of fresh media was added to each well, and 10 μl (150 μM) of z-Leu-Leu-Nle-CHO dissolved in 10% DMSO was added to the wells as a series 2-fold dilutions (final concentration of cisplatin in the wells ranged from 0.05-7.5 μM). The cells were incubated with z-Leu-Leu-Nle-CHO for 48 hrs, the media was decanted, and the cells were submerged with 200 μl of 0.2% crystal violet in 2% ethanol for 10 min. The plates were rinsed for 2 min with tap water. The bound dye was solublized by incubation at 37° C. for 1 h with 200 μl of 0.5% sodium dedecyl sulfate in 50% ethanol. The plates were then scanned with an ELISA reader at 562 nm. The percentage cell growth inhibition mediated by test agents was calculated as: % inhibition=[1-(OD of z-Leu-Leu-Nle-CHO-treated cells/OD DMSO-treated control cells)]×100/100.
# To determine whether z-Leu-Leu-Nle-CHO treatment potentiates the effect of cisplatin on human […] cancer cells, the CaSki cells were treated for 48 h with 0.1-0.8 μM z-Leu-Leu-Nle-CHO and various concentrations of cisplatin (2-fold dilutions of a cisplatin solution to produce final concentrations of 1.6-200 μM cisplatin). Following the z-Leu-Leu-Nle-CHO and cisplatin treatment, the cells were tested for growth inhibition as described above.
# Isobologram analysis was performed by measuring the IC50 values of cisplatin in the presence of various concentrations of z-Leu-Leu-Nle-CHO. These IC50 values were plotted with SigmaPlot, and a straight line was traced between the IC50 values of cells treated with either cisplatin or z-Leu-Leu-Nle-CHO alone.
# [2] = tested on: CaSki human cervical cancer cells; experiment: Apoptosis of CaSki cells (Annexin V flow cytometry, caspase 3 Western blot)
# Procedure: For the apoptosis measurement assay, the transformed CaSki human cervical cancer cells were treated with DMSO, or 25 μM, 50 μM or 100 μM cisplatin for 24 hours. After cisplatin treatment, the cells were collected and stained with fluorescein-conjugated annexin V and propidium iodide, using the APO TARGET Annexin-V FITC Apoptosis Kit (BioSource International, Inc., Camarillo, Calif.) according to the manufacturer's instructions. After the staining, the cells were sorted by flow cytometry with a FACScan instrument (Becton-Dickinson), Annexin-V positive stained cells were counted as apoptotic cells. Cells that were propidium iodide positive but annexin V negative were not counted as apoptotic cells.
# To determine whether z-Leu-Leu-Nle-CHO induces cell death via apoptosis, CaSki cells were treated with various concentrations of z-Leu-Leu-Nle-CHO for 18 h and then either stained with Annexin-V-FITC as described above, or subject to Western blot analysis using antibody to both the pro-enzyme and active form of caspase-3 (Santa Cruz Biotechnology, Santa Cruz, Calif.) as described above.
# [3] = tested on: NOXA; experiment: NOXA induction in multiple myeloma cell lines (Western blot); details: RPMI8226 and U266; 24 hours; bortezomib 0.01 to 10 μM, MG-132 10 μM, z-Leu-Leu-Nle-CHO 10 μM
# Procedure: (§1) Two different multiple myeloma cell lines (RMP18226 and U266) (ATCC, Rockville, Md.) were treated for 24 hours with various concentrations of the proteasome inhibitors bortezomib (0.01 to 10 μM) and MG-132 (10 μM), or the dual inhibitor z-Leu-Leu-Nle-CHO (10 μM). The cells were evaluated for induction of NOXA and an increase in cleaved caspase 3, by Western blot analysis and for cell viability using APO TARGET Annexin V-FITC staining kits (Biosource) as described above. The caspase 3 antibody was purchased from Abcam (Cambridge, Mass.). […] At a concentration of 10 μM, bortezomib induces approximately equal NOXA levels compared to the other proteasome inhibitor tested (MG-132) and the dual inhibitor z-Leu-Leu-Nle-CHO. The induction of NOXA coincided with the appearance of cleaved caspase 3, which is involved in the final stage of cell death. […] FIG. 12 is graph showing representative results from bortezomib treatment. The induction of apoptosis is concentration-dependent (FIG. 12); with doses as low as 0.01 μM bortezomib trigger significant apoptosis (p<0.05).
# [4] = tested on: RPMI8226 myeloma cells; experiment: Apoptosis of myeloma cell line RPMI8226 (Annexin V-FITC); details: for apoptotic response: after 18 hrs
# Procedure: as §1, with “The” for “Two different multiple myeloma cell lines (RMP18226 and U266) (ATCC, Rockville, Md.) were treated for 24 hours with various concentrations of the proteasome inhibitors bortezomib (0.01 to 10 μM) and MG-132 (10 μM), or the dual inhibitor z-Leu-Leu-Nle-CHO (10 μM). The”
Compound,effect on cytotoxicity of cisplatin ([1]; siRNA 24 h before cisplatin),"effect on cisplatin-induced apoptosis ([2]; cisplatin 25, 50 or 100 μM for 24 hours)",NOXA induction [3],apoptotic response [4],lowest dose triggering significant apoptosis (p<0.05) [4],"effect on cisplatin cell growth inhibition ([1]; 0.1-0.8 μM, doses lower than IC50, 48 h)","IC50 ([1]; Homo sapiens, Ca-Ski, alone, 48 hrs, read-out: IC50, cell growth inhibition)",isobologram analysis with cisplatin ([1]; especially at low cisplatin concentrations (1-50 μM)),caspase 3 activation ([2]; 18 h),mode of cell death (Annexin V flow cytometry) ([2]; 18 h)
5′-AAGTGTCTGAGGCCAGCAAGA-3′ [Notch-1 siRNA],strikingly potentiated the cytotoxicity of cisplatin,significantly enhances cisplatin-induced apoptosis,–,–,–,–,–,–,–,–
"CC(C)C[C@@H](C=O)NC(=O)[C@H](CC(C)C)NC(=O)[C@H](CC(C)C)NC(=O)OCc1ccccc1 [MG-132, benzoxycarbonyl-Leucyl-Leucyl-Leucyl-aldehyde] (Cbz-Leu-Leu-Leu-aldehyde)",–,–,found to induce NOXA,triggered significant apoptotic response after 18 hrs,–,–,–,–,–,–
"CC(C)C[C@H](NC(=O)[C@H](Cc1ccccc1)NC(=O)c1cnccn1)B(O)O [bortezomib, N-(2-pyrazine)carbonyl-L-phenylalanine-L-leucine boronic acid]",–,–,induces NOXA in a concentration dependent manner,triggered significant apoptotic response after 18 hrs,0.01 µM,–,–,–,–,–
"CCCC[C@@H](C=O)NC(=O)[C@H](CC(C)C)NC(=O)[C@H](CC(C)C)NC(=O)OCc1ccccc1 [z-Leu-Leu-Nle-CHO, N-benzyloxycarbonyl-leucyl-leucyl-norleucinal] (Cbz-Leu-Leu-[Nle]-aldehyde)",–,–,found to induce NOXA,triggered significant apoptotic response after 18 hrs,–,potentiated the effects of cisplatin,640 nM,moderate synergism,dose-dependent caspase 3 activation,primarily apoptotic
